Legend:
Type in all cases: in vivo
[1] = test system: Rhipicephalus microplus larvae (strain Parkhurst, resistant against synthetic pyrethroids); test: Rhipicephalus (Boophilus) microplus in-vitro contact test, larval cattle tick; settings: after 48 hours, read-out: activity (efficacy: larvae dead or moribund); for pest or weed control at 100 g/ha: application rate 1 pg/cm^2 (=100 g/ha); for pest or weed control at 500 g/ha: application rate 5 pg/cm^2 (=500 g/ha)
Method: Rhipicephalus (Boophilus) microplus—In-Vitro Contact Tests Larval Cattle Tick (Strain Parkhurst. Resistant Against Synthetic Pyrethroids)
(§1) 9 mg compound is solved in 1 mL acetone and diluted with acetone to the desired concentration. 250 μL of the test solution is filled in 25 mL glass test tubes and homogeneously distributed on the inner walls by rotation and tilting on a shaking device (2 h at 30 rpm). With a compound concentration of 900 ppm, an inner surface of 44.7 cm^2 and a homogeneous distribution, a dose of 5 μg/cm^2 is achieved.
After the solvent has evaporated, each test tube is filled with 20-50 cattle tick larvae (Rhipicephalus microplus), closed with a perforated lid and incubated in a horizontal position at 85% relative humidity and 27° C. in an incubator. After 48 hours efficacy is determined. The larvae are patted on the ground of the tubes and negative geotactic behaviour is recorded.
An efficacy of 100% means all larvae are dead or moribund; 0% means no larvae are dead or moribund.

[2] = test system: adult engorged female ticks (Rhipicephalus microplus); test: Rhipicephalus (Boophilus) microplus injection test; settings: 168 h, egg deposition after 7 days, read-out: activity (efficacy: infertile eggs); for pest or weed control at 4 pg: application rate 4 pg/animal; for pest or weed control at 0.02 mg: application rate 20 μg/animal
Method: Rhipicephalus (Boophilus) microplus—Injection Test
(§2) Solvent: dimethyl sulfoxide
To produce a suitable preparation of active compound, 10 mg of active compound are dissolved in 0.5 mL solvent, and the concentrate is diluted with solvent to the desired concentration.
Five adult engorged female ticks (Rhipicephalus microplus) are injected with 1 μL compound solution into the abdomen. The ticks are transferred into replica plates and incubated in a climate chamber.
After 7 days egg deposition of fertile eggs is monitored. Eggs where fertility is not visible are stored in a climate chamber till hatching after about 42 days. An efficacy of 100% means all eggs are infertile; 0% means all eggs are fertile.

[3] = test system: adult unfed cat fleas (Ctenocephalides felis); test: Ctenocephalides felis oral test; settings: 48 h, read-out: activity (mortality)
Method: Ctenocephalides felis—Oral Test
as §2
To produce a suitable preparation of active compound, 10 mg of active compound are dissolved in 0.5 mL solvent, and the concentrate is diluted with cattle blood to the desired concentration.
Approximately 20 adult unfed cat fleas (Ctenocephalides felis) are placed in flea chambers. The blood chamber, sealed with parafilm on the bottom, are filled with cattle blood supplied with compound solution and placed on the gauze covered top of the flea chamber, so that the fleas are able to suck the blood. The blood chamber is heated to 37° C. whereas the flea chamber is kept at room temperature.
After 2 days mortality in % is determined. 100% means all the fleas have been killed; 0% means none of the fleas have been killed.

[4] = test system: larvae of the banded cucumber beetle (Diabrotica balteata); test: Diabrotica balteata spray test; settings: 168 h, after 7 days, read-out: activity (efficacy: seedlings grown); for pest or weed control at 100 g/ha: application rate 100 g/ha (=32 pg/well); for pest or weed control at 500 g/ha: application rate 500 g/ha (=160 pg/well)
Method: Diabrotica balteata—spray test
(§3) Solvent: 78.0 parts by weight of acetone • • 1.5 parts by weight of dimethylformamide
(§4) Emulsifier: alkylarylpolyglycol ether
(§5) To produce a suitable preparation of active compound, 1 part by weight of active compound is mixed with the stated amount of solvent, and the concentrate is diluted with water, containing an emulsifier concentration of 1000 ppm, to the desired concentration. Further test concentrations are prepared by dilution with emulsifier containing water.
Soaked wheat seeds (Triticum aestivum) are placed in a multiple well plate filled with agar and some water and are incubated for 1 day to germinate (5 seeds per well). The germinated wheat seeds are sprayed with a test solution containing the desired concentration of the active ingredient. Afterwards each unit is infected with 10-20 larvae of the banded cucumber beetle (Diabrotica balteata).
After 7 days efficacy in % is determined. 100% means all the seedlings have grown up like in the untreated, uninfected control; 0% means none of the seedlings have grown.

[5] = test system: fall armyworm larvae (Spodoptera frugiperda); test: Spodoptera frugiperda spray test; settings: 168 h, read-out: activity (mortality)
Method: Spodoptera frugiperda—Spray Test
Solvent: 78.0 parts by weight acetone • 1.5 parts by weight dimethylformamide
as §4
as §5, with “solvents” for “solvent,”, “and” for “and the concentrate”
Maize (Zea mays) leaf sections are sprayed with a preparation of the active ingredient of the desired concentration. Once dry, the leaf sections are infested with fall armyworm larvae (Spodoptera frugiperda).
After 7 days mortality in % is determined. 100% means all caterpillars have been killed and 0% means none of the caterpillars have been killed.

[6] = test system: Aedes aegypti strain MONHEIM; test: Aedes aegypti test (AEDSAE surface treatment & contact assay); settings: 24 hours after contact, read-out: efficacy (mortality); for mortality at 4 mg/m2: surface concentration 4 mg/m^2, exposure 30 minutes; for mortality at 20 mg/m2: surface concentration 20 mg/m^2, exposure 30 minutes
Method: Aedes aegypti Test (AEDSAE Surface Treatment & Contact Assay)
Solvent: Aceton+2000 ppm rapeseed oil methyl ester (RME)
In order to produce a sufficient, active ingredient containing solution it is necessary to solve the test compound in the solvent-mix (acetone at 2 mg/ml/RME 2000 ppm). This solution is pipetted onto a glazed tile and after evaporation of the acetone, adult mosquitoes of the species Aedes aegypti strain MONHEIM are placed onto the dried surface. The exposure time is 30 minutes. Mortality in percent (%) is determined 24 hours after contact of the insects to the treated surface. 100% mortality means that all tested insects are dead, whereas 0% means that no insect died.

[7] = test system: green peach aphid (Myzus persicae); test: Myzus persicae oral test; settings: 120 h, application rate 4 ppm, after 5 days
Method: Solvent: 100 parts by weight acetone
To produce a suitable preparation of active compound, 1 part by weight of active compound is mixed with the stated amount of solvent, and the concentrate is diluted with water to the desired concentration.
50 μL compound solution is filled in microtiter plates and 150 μL IPL41 insect medium (33%+15% sugar) is added to obtain a total volume of 200 μL per well. Afterwards the plates are sealed with parafilm through which a mixed population of the green peach aphid (Myzus persicae) can suck on the compound preparation.
After 5 days mortality in % is determined. 100% means all aphids have been killed and 0% means none of the aphids have been killed.

[8] = test system: adult brown dog ticks (Rhipicephalus sanguineus); test: Rhipicephalus sanguineus in-vitro contact test, adult brown dog ticks; settings: after 48 hours, read-out: activity (efficacy: ticks dead or moribund); for pest or weed control at 5 µg/cm2, 500 g/ha: application rate 5 μg/cm^2 (=500 g/ha); for pest or weed control at 100 g/ha: application rate 1 pg/cm^2 (=100 g/ha)
Method: Rhipicephalus sanguineus—In-Vitro Contact Tests with Adult Brown Dog Ticks
as §1
After the solvent has evaporated, each test tube is filled with 5-10 adult brown dog ticks (Rhipicephalus sanguineus), closed with a perforated lid and incubated in a lying position at room temperature and relative humidity. After 48 hours efficacy is determined. The ticks are patted on the ground of the tubes and are incubated on a heating plate at 45-50° C. for at most 5 minutes. Immotile or uncoordinated moving ticks, which are not able to escape the heat by climbing upwards, are marked as dead or moribund.
An efficacy of 100% means all ticks are dead or moribund; 0% means no ticks are dead or moribund.

[9] = test system: larvae of the southern green stink bug (Nezara viridula); test: Nezara viridula spray test; settings: 96 h, application rate 500 g/ha, after 4 days
Method: Nezara viridula—Spray Test
as §3, §4, §5
Barley plants (Hordeum vulgare) infested with larvae of the southern green stink bug (Nezara viridula) are sprayed with a test solution containing the desired concentration of the active ingredient.
After 4 days mortality in % is determined. 100% means all the stink bugs have been killed; 0% means none of the stink bugs have been killed.

Structure (SMILES)	pest or weed control at 100 g/ha [1] [%]	pest or weed control at 500 g/ha [1] [%]	pest or weed control at 4 pg [2] [%]	pest or weed control at 0.02 mg [2] [%]	mortality at 100 ppm [3] [%]	pest or weed control at 100 g/ha [4] [%]	pest or weed control at 500 g/ha [4] [%]	mortality at 500 g/ha [5] [%]	mortality at 4 mg/m2 [6] [%]	mortality at 4 ppm [7] [%]	mortality at 20 mg/m2 [6] [%]	mortality at 100 g/ha [5] [%]	pest or weed control at 5 µg/cm2, 500 g/ha [8] [%]	mortality at 500 g/ha [9] [%]	pest or weed control at 100 g/ha [8] [%]
CCCc1nc([C@H](C)NC(=O)c2cc(Cl)cc(C3CC3)c2)n(-c2ccc(C#N)cn2)n1 [I-1]	100	100	100	100	100	100	100	100	80 to 100	–	–	–	–	–	–
C[C@H](NC(=O)c1cc(Cl)cc(S(=O)(=O)CC(F)(F)F)c1)c1nc(C2CC2)nn1-c1ncc(Cl)cn1 [I-26]	90	90	100	100	100	100	–	–	–	90	–	–	–	–	–
COc1nc([C@H](C)NC(=O)c2csc(Cl)c2)n(-c2ccc(C#N)cn2)n1 [I-8]	–	–	80	100	80	80	100	–	80 to 100	–	80 to 100	–	–	–	–
CC(NC(=O)c1cc(Br)cc(C2(C(F)(F)F)CC2)c1)c1nc(Cl)nn1-c1ncccn1 (centres unmarked) [I-47]	90	90	100	100	80	100	–	–	80 to 100	100	80 to 100	100	–	–	–
CC(NC(=O)c1cc(C(F)(F)F)n(C)n1)c1nc(Cl)nn1-c1ccc(C#N)cn1 (centres unmarked) [I-33]	100	100	80	80	100	–	–	–	–	–	–	–	80	–	–
CC(NC(=O)c1cc(C(F)(F)F)n(C)n1)c1nc(Cl)nn1-c1ncccn1 (centres unmarked) [I-31]	100	100	100	100	90	–	–	–	–	90	–	–	–	–	–
CC(NC(=O)c1cc(Cl)cc(S(C)(=O)=O)c1)c1nc(Br)nn1-c1ccc(Cl)cn1 (centres unmarked) [I-28]	100	100	100	100	100	100	100	100	–	90	–	100	–	100	–
CC(NC(=O)c1cc(C(F)(F)F)n(C)n1)c1nc(Br)nn1-c1ncccn1 (centres unmarked) [I-39]	100	100	100	–	100	–	–	–	–	–	–	–	80	–	80
CCOc1nc([C@H](C)NC(=O)c2cc(Cl)cc(S(C)(=O)=O)c2)n(-c2ccc(C#N)cn2)n1 [I-9]	100	100	100	100	100	–	100	100	–	100	–	100	–	–	–
CC(NC(=O)c1cc(Br)cc(C2(C(F)(F)F)CC2)c1)c1nc(Br)nn1-c1ncccn1 (centres unmarked) [I-48]	90	90	100	–	100	–	–	–	–	100	–	100	–	–	–
CC(NC(=O)c1cc(Cl)cc(S(C)(=O)=O)c1)c1nc(C(F)F)nn1-c1ccc(C#N)cn1 (centres unmarked) [I-6]	100	100	100	100	100	–	–	100	–	100	–	83	–	–	–
Cc1nc([C@H](C)NC(=O)c2csc(Cl)c2)n(-c2cc(C#N)ccn2)n1 [II-19]	–	–	100	100	100	–	100	–	80 to 100	–	–	–	–	–	–
C[C@H](NC(=O)c1cc(Cl)cc(S(C)(=O)=O)c1)c1ncnn1-c1ncc(I)s1 [II-51, 3-chloro-N-{(1S)-1-[1-(5-iodo-1,3-thiazol-2-yl)-1H-1,2,4-triazol-5-yl]ethyl}-5-(methylsulfonyl)benzamide]	100	100	100	100	100	100	–	–	–	–	–	100	–	–	80

Reference: US20260206761A1, “HETEROARYL-TRIAZOLE COMPOUNDS AS PESTICIDES” (Bayer Aktiengesellschaft, priority 2019, published 2026)
